# Read-outs that look alike come from different tables or passages of the source.
# Key:
# α-glucosidase = conditions: cited from earlier work
# B. subtilis = system: B. subtilis; parameters: method as in PMID 31737673; conditions: same ATCC strain as in the present study; cited from earlier work
# P. aeruginosa = conditions: cited from earlier work
# [1] = system: B. subtilis, B. cereus and S. aureus; parameters: method as in earlier work; conditions: cited from earlier work
# S. aureus = conditions: cited from earlier work
# E. faecalis = conditions: cited from earlier work
# [2] = cited from earlier work
# KB cells = conditions: cited from earlier work
# HL60 cells = conditions: cited from earlier work
# [3] = system: YMB-1 breast cancer cells; conditions: cited from earlier work
# [4] = system: CAMA-1 breast cancer cells; parameters: method as in doi:10.4314/tjpr.v17i9.4; conditions: cited from earlier work
# E. coli = system: E. coli; parameters: method as in doi:10.1016/j.sajb.2010.04.010; conditions: range given for both compounds; cited from earlier work
# [5] = DPPH radical scavenging activity assay; conditions: methanolic aerial parts extracts (Soxhlet); 30 min
# Procedure: Antiradical activity was assessed using the free radical 2,2-diphenyl-1-picrylhydrazyl (DPPH) according to the previously described procedure. Methanolic stock solution of DPPH (0.1 mM) was dissolved to obtain absorbance of 0.70 ± 0.02. In 2 mL of prepared solution, 10 µL sample was added. After 30 min incubation, absorbance was measured at 517 nm with methanol used as blank. Results are expressed as concentrations observed to reduce the DPPH radical absorbance by 50% (IC50).
# [6] = system: Pseudomonas aeruginosa ATCC 27853; assay: Serial broth microdilution with agar sub-cultivation; assay type: cell-based; conditions: ATCC27853, aerial parts extracts, TTC detection, n.d. = growth inhibition not detected (0.36–22.73 mg/mL)
# COX-1 = system: COX-1; parameters: method as in PMID 11849848; conditions: cited from earlier work
# COX-2 = system: COX-2; parameters: method as in PMID 11849848; conditions: cited from earlier work
# MDA-MB-231 = system: MDA-MB-231; parameters: method as in PMID 34719192; conditions: cited from earlier work
# [7] = system: Staphylococcus aureus ATCC 29213; assay: Serial broth microdilution with agar sub-cultivation; assay type: cell-based
# [8] = system: Escherichia coli ATCC 10536; assay: as above; assay type: cell-based; conditions: ATCC10536, aerial parts extracts, TTC detection, n.d. = growth inhibition not detected (0.18–11.36 mg/mL)
# [9] = system: S. aureus strains (MSSA and MRSA); assay: Serial broth microdilution, S. aureus strains taken together; assay type: cell-based; conditions: Staphylococcus aureus; reference standard; read-out: MIC, anti-staphylococcal activity
# [10] = system: Staphylococcus aureus ATCC 6538; assay: Serial broth microdilution with agar sub-cultivation; assay type: cell-based; conditions: ATCC6538, aerial parts extracts, TTC detection
# five MRSA strains = system: five MRSA strains; parameters: method as in PMID 18404351; conditions: cited from earlier work
# [11] = system: Escherichia coli ATCC 10536; assay: Well diffusion method; assay type: cell-based; conditions: aerial parts extracts c = 50 mg/mL; antibiotics c = 0.2 mg/mL; n.d. = growth inhibition not detected
# Procedure: (§1) Antibacterial activity was evaluated using the following strains: Bacillus cereus American Type Culture Collection (ATCC, Manassas, VA, USA) 11778, B. subtilis ATCC 6633, Enterococcus faecalis ATCC 29212, Staphylococcus aureus ATCC 6538 and S. aureus ATCC 29213 among Gram-positive and Escherichia coli ATCC 10536, Klebsiella pneumoniae MFBF 10402 and Pseudomonas aeruginosa ATCC 27853 among Gram-negative bacterial species. Additionally, eight clinical isolates of S. aureus, including methicillin-resistant S. aureus (MRSA MFB F101, MRSA MFBF 124, MRSA MFBF 154, MRSA MFBF 164, and MRSA MFBF 177) and methicillin susceptible S. aureus (S. aureus MFBF 505, S. aureus MFBF 10661 and S. aureus MFBF 10666) were used. Bacterial strains were sourced from the Collection of Microorganisms, Department of Microbiology, Faculty of Pharmacy and Biochemistry, University of Zagreb. Inoculums were prepared from overnight cultures that were cultured on tryptic soy agar (TSA) at 37 °C, suspended in sterile physiological saline, with the optic density adjusted to 0.5 McFarland (1.5 × 10^8 colony-forming units (CFUs)/mL) using a densitometer (Densimat, BioMérieux, Marcy-l’Étoile, France). Right before cultivation in nutrient medium, 1 mL of each prepared suspension was dissolved with 9 mL physiological saline. Prior to cell treatment, sample stock solutions in distilled water (c = 50 mg/mL) were filtered through Chromafil cellulose acetate filters of pore size 0.22 μm (Macherey-Nagel, Düren, Germany).
# (§2) Well diffusion method was carried out according to the European Pharmacopoeia. Inoculums (100 μL) were transferred to individual petri dishes with 4 mm thick Müller–Hinton agar and equally distributed across agar surface with a glass L-stick. Wells were prepared using sterile stainless-steel cylinders (d = 6 mm) and filled with 50 μL of methanolic aerial parts extract solution (c = 50 mg/mL) in distilled water. Plates were incubated at 37 °C for 18 h in the dark. Diameters of the zones of inhibition of bacterial growth (mm) were read from the diameters of transparent zones around the wells. Gentamicin and norfloxacin (c = 0.2 mg/mL) were used as positive controls.
# [12] = system: Staphylococcus aureus ATCC 6538; assay: Well diffusion method; assay type: cell-based; conditions: aerial parts extracts c = 50 mg/mL; antibiotics c = 0.2 mg/mL
# Procedure: as §1, §2
# [13] = system: Enterococcus faecalis ATCC 29212; assay: Well diffusion method; assay type: cell-based; conditions: aerial parts extracts c = 50 mg/mL; antibiotics c = 0.2 mg/mL; n.d. = growth inhibition not detected
# Procedure: as §1, §2
# [14] = system: Bacillus cereus ATCC 11778; assay: Well diffusion method; assay type: cell-based; conditions: aerial parts extracts c = 50 mg/mL; antibiotics c = 0.2 mg/mL; n.d. = growth inhibition not detected
# Procedure: as §1, §2
# [15] = system: Pseudomonas aeruginosa ATCC 27853; assay: Well diffusion method; assay type: cell-based; conditions: aerial parts extracts c = 50 mg/mL; antibiotics c = 0.2 mg/mL; n.d. = growth inhibition not detected
# Procedure: as §1, §2
# [16] = system: Bacillus subtilis ATCC 6633; assay: Well diffusion method; assay type: cell-based; conditions: aerial parts extracts c = 50 mg/mL; antibiotics c = 0.2 mg/mL; n.d. = growth inhibition not detected
# Procedure: as §1, §2
# [17] = system: Klebsiella pneumoniae MFBF 10402; assay: Well diffusion method; assay type: cell-based; conditions: aerial parts extracts c = 50 mg/mL; antibiotics c = 0.2 mg/mL; n.d. = growth inhibition not detected
# Procedure: as §1, §2
# [18] = system: HT-29 human colon adenocarcinoma cells; parameters: method as in doi:10.1007/s00044-015-1500-z; conditions: cited from earlier work
# [19] = compounds from Origanum majorana leaves
# [20] = same ATCC strain as in the present study
# [21] = constituents of G. alypum and standards, read-out: DPPH radical scavenging IC50
# [22] = isolated compounds of Clerodendrum bungei
smiles,measurement,setting,value
"O=c1cc(-c2ccc(O)cc2)oc2cc(O)cc(O)c12 [apigenin, Apigenin]",IC50,α-glucosidase; [19],> 500 µM
same,MIC against B. subtilis,B. subtilis,8 µg/mL
same,MIC against P. aeruginosa,P. aeruginosa; [20],64 to 400 µg/mL
same,"MIC against B. subtilis, B. cereus and S. aureus",[1],30 to 80 µg/mL
same,inhibitory activity against S. aureus,S. aureus,no inhibitory activity was observed
same,MIC against E. faecalis,E. faecalis; [20],8 µg/mL
O=c1cc(-c2ccc(O)c(O)c2)oc2cc(O)c(O)c(O)c12 [6-hydroxyluteolin],IC50,α-glucosidase; [19],10 µM
O=c1c(O)c(-c2ccc(O)c(O)c2)oc2cc(O)cc(O)c12 [quercetin],IC50,[2]; [21],7.8 µM
"CC(=O)OCC1=C[C@@H]2OC(=O)C3=CO[C@@H](O[C@@H]4O[C@H](CO)[C@@H](O)[C@H](O)[C@H]4O)[C@H]1[C@@H]32 [asperuloside, Asperuloside]",IC50 KB cells,KB cells,104.2 µg/mL
same,IC50 HL60 cells,HL60 cells,11.0 µg/mL
same,IC50 YMB-1 breast cancer cells,[3],0.7 µg/mL
"O=C(OCC1=CC(O)C2(O)C=COC(O[C@@H]3O[C@H](CO)[C@@H](O)[C@H](O)[C@H]3O)C12)c1ccccc1 (some centres unmarked) [Globularifolin, Globularifolin (10-O-Benzoylmonomelittoside)]",IC50,[4],10 µM
"O=c1cc(-c2ccc(O)cc2)oc2c([C@@H]3O[C@H](CO)[C@@H](O)[C@H](O)[C@H]3O)c(O)c([C@@H]3O[C@H](CO)[C@@H](O)[C@H](O)[C@H]3O)c(O)c12 [vicenin-2, Vicenin-2 (Apigenin-6,8-di-C-glucoside)]",IC50,α-glucosidase,271 µM
"C[C@@H]1O[C@@H](O[C@@H]2[C@@H](O)[C@H](OCCc3ccc(O)c(O)c3)O[C@H](COC(=O)/C=C/c3ccc(O)c(O)c3)[C@H]2O)[C@H](O)[C@H](O)[C@H]1O [isoverbascoside, Isoverbascoside (Isoacteoside)]",IC50,α-glucosidase; [22],100 µM
same,MIC against P. aeruginosa,P. aeruginosa; given for both compounds,250 µg/mL
same,"MIC, anti-staphylococcal activity",S. aureus,130 µg/mL
same,MIC against E. faecalis,E. faecalis; range given for both compounds,100 to 150 µg/mL
same,MIC against E. coli,E. coli,100 to 250 µg/mL
Cc1c(C)c2c(c(C)c1O)CCC(C)(C(=O)O)O2 (centres unmarked) [Trolox],DPPH radical scavenging activity IC50,[5],2.71 µg/mL
"COc1cc(/C=C/C(=O)O[C@H]2[C@H](O[C@@H]3O[C@@H](C)[C@H](O)[C@@H](O)[C@H]3O)[C@@H](O)[C@H](OCCc3ccc(O)c(O)c3)O[C@@H]2CO)ccc1O [leucosceptoside A, Leucosceptoside A]",IC50,α-glucosidase; [22],700 µM
"C[C@@H]1O[C@@H](O[C@@H]2[C@@H](O)[C@H](OCCc3ccc(O)c(O)c3)O[C@H](CO)[C@H]2OC(=O)/C=C/c2ccc(O)c(O)c2)[C@H](O)[C@H](O)[C@H]1O [Verbascoside, Verbascoside (Acteoside)]",IC50,α-glucosidase; [22],500 µM
same,MIC against P. aeruginosa,P. aeruginosa; given for both compounds,250 µg/mL
same,MIC,[6],227 µg/mL
same,IC50,COX-1,> 1000 µM
same,"MIC, anti-staphylococcal activity",S. aureus,60 µg/mL
same,MIC against E. faecalis,E. faecalis; range given for both compounds,100 to 150 µg/mL
same,MIC against E. coli,E. coli,100 to 250 µg/mL
same,IC50,COX-2,690 µM
same,IC50,MDA-MB-231,0.159 to 0.258 µM
same,MIC,"[7]; ATCC29213, aerial parts extracts, TTC detection",227 µg/mL
same,MBC,"[7]; ATCC29213, agar sub-cultivation",227 µg/mL
same,MIC,[8],227 µg/mL
same,MIC,[9],227 µg/mL
same,MIC,[10],227 µg/mL
same,MIC against five MRSA strains,five MRSA strains,64 to 256 µg/mL
same,IC50,[2]; read-out: DPPH radical scavenging capacity IC50,58.1 µM
"O=C(/C=C/c1ccc(O)c(O)c1)O[C@H]1[C@H](O)[C@@H](O)[C@H](OCCc2ccc(O)c(O)c2)O[C@@H]1CO [calceolarioside A, Calceolarioside A (Desrhamnosyl verbascoside)]",IC50,[2]; read-out: DPPH IC50,22.9 µM
"CCn1cc(C(=O)O)c(=O)c2cc(F)c(N3CCNCC3)cc21 [Norfloxacin, norfloxacin]",growth inhibition zone,[11],44.7 ± 1.0 mm
same,growth inhibition zone,[12],33.8 ± 0.8 mm
same,growth inhibition zone,[13],23.8 ± 0.8 mm
same,growth inhibition zone,[14],26.6 ± 0.9 mm
same,growth inhibition zone,[15],30.7 ± 2.8 mm
same,growth inhibition zone,[16],41.0 ± 0.0 mm
same,growth inhibition zone,[17],7.3 ± 0.5 mm
O=c1cc(-c2ccc(O)c(O)c2)oc2cc(O[C@@H]3O[C@H](CO)[C@@H](O)[C@H](O)[C@H]3O)cc(O)c12 [luteolin 7-O-glucoside],"MIC against B. subtilis, B. cereus and S. aureus",[1],50 to 90 µg/mL
"O=c1cc(-c2ccc(O)cc2)oc2cc(O)c(O)c(O)c12 [6-hydroxyapigenin, 6-hydroxyapigenin (scutellarein)]",IC50,α-glucosidase; [19],12 µM
Cc1cc(C(C)(C)C)c(O)c(C(C)(C)C)c1 [butylated hydroxytoluene],IC50,[2]; [21],30 µM
"CC(=O)OCC1=C[C@H](O)[C@@H]2C(C(=O)O)=CO[C@@H](O[C@@H]3O[C@H](CO)[C@@H](O)[C@H](O)[C@H]3O)[C@H]12 [asperulosidic acid, Asperulosidic acid]",IC50 HT-29 cell viability,[18],6.1 µg/mL
"O=C(/C=C/c1ccc(O)c(O)c1)OC[C@H]1O[C@@H](OCCc2ccc(O)c(O)c2)[C@H](O)[C@@H](O)[C@@H]1O [calceolarioside B, Calceolarioside B (Desrhamnosyl isoverbascoside)]",IC50,[2]; read-out: DPPH IC50,26.2 µM
O=c1cc(-c2ccc(O)c(O)c2)oc2cc(O)cc(O)c12 [luteolin],IC50,α-glucosidase; [19],> 500 µM
"O=C(O)c1cc(O)c(O)c(O)c1 [Gallic Acid, gallic acid]",DPPH radical scavenging activity IC50,[5],0.64 µg/mL
OCCc1ccc(O)c(O)c1 [hydroxytyrosyl moiety],IC50,α-glucosidase,150 µM
"O=c1cc(-c2ccc(O)c(O)c2)oc2cc(O[C@@H]3O[C@H](CO)[C@@H](O)[C@H](O)[C@H]3O)c(O)c(O)c12 [6-hydroxyluteolin 7-O-glucoside, 6-Hydroxyluteolin 7-O-glucoside]",IC50,α-glucosidase; [19],300 µM

# — paper PMC9146695, “Globularia alypum L. and Related Species: LC-MS Profiles and Antidiabetic, Antioxidant, Anti-Inflammatory, Antibacterial and Anticancer Potential” (Pharmaceuticals, 2022)
